Measured values taken from patent publication US20020061924A1, “Agent containing tocotrienol for drug” (priority 2000, published 2002).

Key:
[1] = Antioxidant action on monolayer liposome (iron-ascorbic acid, AAPH, lipoxigenase systems); settings: tocotrienol compared with tocopherol
Procedure: (§1) Strength of antioxidant action of tocotrienol and tocopherol on monolayer liposome and erythrocyte membrane was evaluated by using iron-ascorbic acid, 2, 2′-azobis (2-amidinopropane).2HCl (AAPH) which is a water-soluble radical generator and lipoxigenase reaction system.

[2] = tested on: Human erythrocytes; assay: Deformability of erythrocytes by Micro-Channel Array Flow Analyzer (MC-FAN); assay type: cell-based; settings: for Passage Time: Table 1, control 54 ± 3; for Ratio to Control: passage time relative to control (1.00)
Procedure: Deformability of erythrocytes was measured using a Micro-Channel Array Flow Analyzer (MC-FAN) illustrated in FIG. 3 which measures time for passing total volume of an erythrocyte (8-10 μm) through a pore (6 μm) of a microchip.
Human erythrocytes were incubated with 43.3 μM α-tocotrienol for 30 minutes to incorporate the α-tocotrienol into the erythrocytes, and deformability of the erythrocytes was measured by the MC-FAN. As a control sample, human erythrocytes without α-tocotrienol were prepared, and the deformability was also measured.
In comparison, human erythrocytes were incubated with 40 μM α-tocopherol (vitamin E, Tokyo Kasei Kogyo) for 30 minutes to incorporate the α-tocopherol into the erythrocytes, and deformability of the erythrocytes was measured by the MC-FAN. As a result, passage time of the erythrocyte with a -tocopherol was 36 sec/ 100 μl RBC.

[3] = tested on: human erythrocyte membrane; assay: Reactivity with AAPH radicals on human erythrocyte membrane (residual rate); assay type: cell-based; settings: for Residual Rate (%) 1 hr. / Residual Rate (%) 2 hrs. / Residual Rate (%) 3 hrs.: 10% erythrocyte suspension, 75 mM AAPH, 37° C.; for Residual Rate (%) 1 hr.: after 1 hour; for Residual Rate (%) 2 hrs.: after 2 hours; for Residual Rate (%) 3 hrs.: after 3 hours
Procedure: Human erythrocytes to be tested were prepared from blood of a healthy person by treating the blood according the method disclosed in Lipids, vol. 33 (6), p589-595 (1998). Actually, blood drawn from a healthy person was put in a test tube containing EDTA-2Na (1 mg/ml), and certrifuged at 1000×g at 4° C. for 20 minutes to be separated into erythrocytes and plasma. The erythrocytes were washed three times with 5 parts by volume of phosphate-buffered saline (PBS), and centrifuged exactly at 1000×g for 20 minutes to obtain a definite volume of packed erythrocytes.
The erythrocytes were subjected to hemolysis test according to the method of Miki et al., Arch. Biochem. Biophys. 258, p373-380. 0.5 ml of the human erythrocytes were suspended into 4 parts by volume of PBS, and a-tocotrienol ethanol solution was added thereto wherein the final ethanol concentration was made 0.5% (v/v) or less. After incubating the mixture at 37° C. for 30 minutes, the erythrocytes were washed. 10% suspension of the erythrocytes was incubated again. To the suspension, 75 mM AAPH-PBS solution was added, and oxidation was carried out at 37° C. in a dark place with stirring. The state of erythrocyte membrane, which was destroyed by radicals to induce hemolysis, was observed.
Similarly, the human erythrocytes were incubated with α-tocopherol for 30 minutes, washed, and 10% suspension of the erythrocytes was incubated again. To the suspension, 75 mM AAPH was added, and the state of erythrocyte membrane, which was destroyed by radicals to induce hemolysis, was observed.
Reactivity of α-tocotrienol and α-tocopherol with radicals on human erythrocyte membrane was examined, and residual rate of α-tocotrienol and α-tocopherol in solution was measured after 1, 2 and 3 hours.

[4] = tested on: hemolysis by dialuric acid; settings: amount relative to comparator; cited from earlier work
[5] = tested on: erythrocyte membrane; assay: Antioxidant action on erythrocyte membrane (iron-ascorbic acid, AAPH, lipoxigenase systems); assay type: cell-based; settings: tocotrienol compared with tocopherol
Procedure: as §1

Molecule | strength of antioxidant action on monolayer liposome [1] | Passage Time [2] [sec/100 μ1 RBC] | passage time of the erythrocyte ([2]; incubated with 43.3 μM for 30 minutes, without compound 54) | Ratio to Control [2] | Residual Rate (%) 1 hr. [3] [%] | Residual Rate (%) 2 hrs. [3] [%] | Residual Rate (%) 3 hrs. [3] [%] | inhibition of hemolysis by dialuric acid [4] | passage time of the erythrocyte ([2]; incubated with 40 μM for 30 minutes) [sec/ 100 μl RBC] | ability of improving the deformability of erythrocytes ([2]; comparison of tocotrienol with tocopherol) | incorporation (reaction rate with radicals) relative to tocopherol ([3]; from residual rates on human erythrocyte membrane) | strength of antioxidant action on erythrocyte membrane [5]
tocopherol [reference compound] | difference in the strength of antioxidant action on monolayer liposome was not found |  |  |  |  |  |  |  |  |  |  | 
CC(C)=CCC/C(C)=C/CC/C(C)=C/CC[C@]1(C)CCc2c(C)c(O)c(C)c(C)c2O1 [α-tocotrienol] |  | 26 ± 5 | 26 sec/100 μl erythrocyte (RBC) | 0.47 | 12 ± 2 | 7 ± 1 | 4 ± 1 | inhibit hemolysis by dialuric acid even in an amount of one third |  |  |  | 
Cc1c(C)c2c(c(C)c1O)CC[C@@](C)(CCC[C@H](C)CCC[C@H](C)CCCC(C)C)O2 [α-tocopherol, reference compound] |  | 34 ± 5 |  | 0.63 | 41 ± 3 | 25 ± 4 | 19 ± 3 |  | 36 |  |  | 
tocotrienol | difference in the strength of antioxidant action on monolayer liposome was not found |  |  |  |  |  |  |  |  | more excellent than tocopherol | about three to four times as much as that of tocopherol | much greater than that of tocopherol
